Legend:
[1] = UV absorption of the compounds (E1/1 at λmax); type: physicochemical
[2] = Photostability: irradiation in a Suntester, concentration decrease of the UV filters; type: physicochemical
From the text: The values give the concentration decrease of the UV filters in percentage following irradiation (dose in J/cm^2).

[3] = formulation Example 1, 72 J/cm^2, 765 W/m^2
[4] = formulation Example 1, 144 J/cm^2, 765 W/m^2

SMILES	λmax [1]	concentration decrease of the UV filter following irradiation [2, 3]	concentration decrease of the UV filter following irradiation [2, 4]	further results
COc1cc2c(cc1OC)C(C)(C)C/C2=C(/C#N)C(=O)C(C)(C)C [Example 1, 2-(5,6-Dimethoxy-3,3-dimethyl-1-indanylidene)-4,4-dimethyl-3-oxo-pentanonitrile]	373 nm			
COc1c(C)cc2c(c1C)C(C)(C)C/C2=C(/C#N)C(=O)C(C)(C)C [Example 2, 2-(5-Methoxy-3,3,4,6-tetramethyl-1-indanylidene)-4,4-dimethyl-3-oxo-pentanonitrile]	340 nm			
Cc1cc2c(cc1C)C(C)(C)C/C2=C(/C#N)C(=O)C(C)(C)C [Example 3, 2-(3,3,5,6-tetramethyl-1-indanylidene)-4,4-dimethyl-3-oxo-pentanonitrile]	342 nm			
Cc1ccc2c(c1)/C(=C(\C#N)C(=O)C(C)(C)C)CC2(C)C [Example 4, 2-(3,3,6-trimethyl-1-indanylidene)-4,4-dimethyl-3-oxo-pentanonitrile]	335/316			E1/1 (specific extinction at λmax) [1]: 588/550
COc1cc2c(cc1OC(C)=O)/C(=C(\C#N)C(=O)C(C)(C)C)CC2(C)C [Example 8, 2-(6-Acetoxy-3,3-dimethyl-5-methoxy-1-indanylidene)-4,4-dimethyl-3-oxo-pentanonitrile]	355/302			E1/1 (specific extinction at λmax) [1]: 420/280
CCCOC(=O)/C(C#N)=C1\CC(C)(C)c2cc(OC)c(OC)cc21 [Example A1]		10%	13%	concentration decrease of the UV filter following irradiation ([2]; combination A1 + OMC, formulation Example 12, 72 J/cm^2): 22%; concentration decrease of the UV filter following irradiation ([2]; combination A1 + OMC, formulation Example 12, 144 J/cm^2): 37%
COC(=O)/C(C#N)=C1\CC(C)(C)c2cc(OC)c(OCC(C)C[Si](C)(O[Si](C)(C)C)O[Si](C)(C)C)cc21 (stereo not shown) [Example A2]		1%	6%	concentration decrease of the UV filter following irradiation ([2]; combination A2 + OMC, formulation Example 12, 72 J/cm^2): 14%; concentration decrease of the UV filter following irradiation ([2]; combination A2 + OMC, formulation Example 12, 144 J/cm^2): 26%
COc1cc2c(cc1OC)C(C)(C)C/C2=C(/C#N)C(=O)C(C)(C)C [Example B1]		2%	3%	concentration decrease of the UV filter following irradiation ([2]; combination B1 + OMC, formulation Example 12, 72 J/cm^2): 2%; concentration decrease of the UV filter following irradiation ([2]; combination B1 + OMC, formulation Example 12, 144 J/cm^2): 3%

Source: patent US7208142B2, “Indanylidene compounds” (Symrise GmbH & Co. KG, priority 2000, dated 2007)
